Laboratory results published in patent publication US9248128B2, “Method for enhancing remyelination using GLI1 inhibitors” (NEW YORK UNIVERSITY, priority 2012, dated 2016).

How the values were obtained:
[1] = test system: Hh pathway; settings: Peukert and Miller-Moslin, ChemMedChem 2010; cited from earlier work
[2] = test system: Gli1^het;RCE mice; experiment: GANT61 infusion into lateral ventricle during cuprizone demyelination/remyelination; GFP-labeled cells in Corpus Callosum by immunofluorescence; format: in vivo, mouse; settings: n=3
Protocol: 10 week old mice were administered 5 mg Tamoxifen (Sigma) in corn oil on alternate days for total of 4 intraperitoneal (i.p.) injections. Gli1^het;RCE, mice, maintained on the Swiss-Webster background, were fed 0.4% cuprizone (Matsushima and Morell, 2001, Brain Pathol., 11:107-116; Elsworth & Howell, Research in Veterinary Science, 14:385-387, 1973). […] For the LPC model, 2 μl 1% LPC (Calbiochem) were stereotaxically injected into the CC at 1.5 mm anterior, 1.2 mm lateral and 2.2 mm ventral to bregma.
GANT61 (Enzo Life Sciences product #ALX-270-482) (5.6 mg/Kg per day; compound in 50% DMSO and 15% Ethanol in PEG400) or vehicle (50% DMSO+15% Ethanol in PEG400) were delivered via mini-osmotic pump (model 2004, Durect) at a rate of 0.25 μl/h for 4 weeks into the lateral ventricle of Gli^het;RCE mice at 0.5 mm Anterior, 0.75 mm lateral and 2.5 mm ventral to the bregma.
For Black-Gold (Millipore) staining, mice were perfused with 4% PFA and 20 μm coronal sections were stained according to manufacturer's protocol. For all other analysis, mice were perfused with Prefer (Anatech) and 20 μm coronal sections were stained with X-gal (Ahn & Joyner, Nature, 437:894-897, 2005) or processed for immunofluorescence with rabbit or chicken anti-GFP (1:1,000, Invitrogen) and one of the following antibodies: rat anti-PDGFRα (1:200, BD Biosciences); rabbit anti-NG2 (1:200, Millipore) and β4 spectrin (1:4,000 from M. Rasband); mouse anti-CC1 (1:400, Calbiochem), anti-GFAP (1:400, Sigma), anti-MOG (1:50, Sigma) and guinea pig anti-Caspr (1:3,000 from M. Bhat). Secondary antibodies were goat anti-species conjugated to Alexafluor-488, 594 or -680 (1:1,000, Molecular Probes). Nuclei were counterstained with Hoechst 33258 (1:5,000, Invitrogen). Fluorescent images were obtained as Z-stacks of 1 μm optical sections using a confocal laser-scanning microscope (LSM 510, Zeiss) and processed using Adobe Photoshop. At least 10 sections/mouse were analyzed and data from at least 3 mice were combined to determine the average and standard deviation. Student's t-test was performed to calculate P values.
To assess whether a strategy of inhibiting Gli1 could potentially be used therapeutically, GANT61, a small molecule inhibitor of Gli1 (Lauth et al., Proc. Natl. Acad. Sci. U.S.A., 104:8455-8460, 2007), was infused into the lateral ventricle of Gli1^het;RCE mice via a mini-osmotic pump. The infusion was started after 4 weeks of cuprizone diet and was continued for an additional 2 weeks on cuprizone and 2 weeks off cuprizone for a total of 4 weeks. Mice were then sacrificed and analyzed (FIG. 4a).

SMILES	selectivity for the Hh pathway over TNF/NFkN signaling, glucocorticoid receptor gene transactivation, and the Ras-Raf-Mek-Mapk cascade [1]	numbers of labeled cells in the CC ([2]; 5.6 mg/Kg per day via mini-osmotic pump for 4 weeks (2 weeks on, 2 weeks off cuprizone), mean±SD, vehicle 6.4±5)	proportion of differentiated oligodendrocytes among GFP-labeled cells ([2]; 5.6 mg/Kg per day via mini-osmotic pump for 4 weeks, mean±SD, vehicle 21.4±18.7%)	increase in GFP-labeled cells in the CC ([2]; FIG. 4C, versus control infusion)	percentage of mature oligodendrocytes ([2]; FIG. 4D, versus control infusion, Student's T test)
CN(C)c1ccccc1CN1CCCN(Cc2ccccc2N(C)C)C1c1ccncc1 [GANT61]	display selectivity for the Hh pathway	43.8±22.1 per section	65.4±7.5%	~7 fold	significant increase
c1cc(-c2sc(-c3ccncc3)c(-c3ccncc3)c2-c2ccncc2)ccn1 [GANT58]	display selectivity for the Hh pathway	–	–	–	–
